# Measured values published in US11591596B2, “Compounds and compositions including phosphorothioated oligodeoxynucleotide, and methods of use thereof” (City of Hope, priority 2015, dated 2023).
# Legend:
# [1] = tested on: CML cells in SCLtTA/BCR-ABL mice; assay: In vivo treatment of SCLtTA/BCR-ABL mice; parameters: species or system mouse; conditions: 3 weeks, compared with NIL+SCR
# Method: SCLtTA/BCR-ABL mice were treated with CpG-miR-126 inhibitor (5 mg/kg, every other day, iv injection), SCR (5 mg/kg, every other day, iv injection), NIL (50 mg/kg, daily by garage)+SCR, NIL+miR-126 inhibitor for 3 weeks and then the remaining CML cells in the PB (FIG. 13A), BM (FIG. 13C) and spleen (FIG. 13D) were analyzed.
# FIGS. 14A-D are scatter plots showing reduced CML LSK and LSC observed in the bone marrow (BM) (FIGS. 14A, 14C) and spleen (FIGS. 14B, 14D) of the mice treated with NIL+miR126 inhibitor compared with the mice treated with NIL+SCR. SCLtTA/BCR-ABL mice were treated with CpG-miR-126 inhibitor, SCR, NIL+SCR, NIL+miR-126 inhibitor for 3 weeks and then the remaining CML LSK primitive cells and LSC in the BM and spleen were analyzed.
# SCLtTA/BCR-ABL mice were treated with CpG-miR-126 inhibitor (5 mg/kg, every other day, iv injection), SCR (5 mg/kg, every other day, iv injection), NIL (50 mg/kg, daily by garage)+SCR, NIL+miR-126 inhibitor for 3 weeks and then the remaining CML cells in the PB, BM and spleen were analyzed. […] The effect of CpG-anti-miR-126 on growth of primary AML LSC and therapeutic response in vivo is still ongoing. These observations indicate that blocking of miR-126 by a myeloid cell-specific CpG-anti-miR-126 ODN inhibitor, among other compounds of the present disclosure, is very effective, and therefore represents a novel therapeutic method targeting miRNA in leukemia and other types of cancer disclosed herein.
# [2] = tested on: CML (K562) and AML cell lines (KG1A, MV4-11, Molm13, NB4, OCI and HL60); assay: Uptake in AML and CML cell lines, Cy3 by flow cytometry; type: cell-based, human; conditions: 4 hours
# Method: FIGS. 3A-3G are flow cytometry histograms showing results of CpG-anti-miR-126 uptake in AML and CML cell lines. Cells were cultured with miR126-inhibitor-Cy3 (Cy3-200 nM0, human CD45 (Ab-200 nM) or Transferrin (TF-200 nM)-conjugated nanoparticles (NP) containing antagomiR-126-Cy3, CpG-miR126 inhibitor-Cy3 (CpG-Cy3-200 nM and 500 nM) for 4 hours, then uptake was analyzed by measuring Cy3 expression in these cells by flow cytometry. FIG. 3A is a histogram showing uptake in K562 cells. FIG. 3B is a histogram showing uptake in KG1A AML cells. FIG. 3C is a histogram showing uptake in MV4-11 AML cells. FIG. 3D is a histogram showing uptake in Molm13 AML cells. FIG. 3E is a histogram showing uptake in NB4 AML cells. FIG. 3F is a histogram showing uptake in OCI AML cells. FIG. 3G is a histogram showing uptake in HL60 AML cells.
# CML (K562) (FIG. 3A) and AML cell lines (KG1A, MV4-11, Molm13, NB4, OCI and HL60) (FIGS. 3B-3G) were cultured with anti-miR126 inhibitor-Cy3 (Cy3-200 nM) alone, human CD45 (Ab-200 nM) or Transferrin (TF-200 nM)-conjugated nanoparticles (NP) containing anti-miR126-Cy3 or unformulated CpG-anti-miR126 inhibitor—Cy3 in two concentrations (200 nM and 500 nM) for 4 hours, the uptake was analyzed by measuring Cy3 expression in these cells by flow cytometry.
# [3] = tested on: normal and CML CD34+CD38− primitive progenitors; assay: Cell cycling of CD34+CD38- cells by EDU/DAPi staining; type: cell-based, human; conditions: 500 nM, 72 hours
# Method: FIGS. 9A-9D are a series of cell sorting plots showing increased cell cycle in CD34+CD38− cells after knockdown of […]. Normal (NL; FIGS. 9A-9B) and CML human CD34+CD38− cells (FIGS. 9C-9D) were sorted and then cultured with 500 nm CpG-miR126 inh-Cy3 or CpG-SCR control for 72 hours, and then cell cycling was analyzed by EDU/DAPi staining.
# CML CD34+, CD34+CD38+ committed and CD34+CD38− primitive progenitors were cultured with CpG-scramble RNA (500 nM), CpG-anti-miR126 inhibitor (500 nM), CpG-scramble RNA (500 nM)+Nilotinib (NIL, 5 uM), and CpG-anti-miR126 inhibitor (500 nM)+NIL (5 uM) for 72 hours and then cell cycling and apoptosis were analyzed by EDU/DAPi and Annexin V/DAPi staining.
# [4] = tested on: Mouse CML leukemia stem cells (LSC, Lin-Sca-1+c-kit+Fit3-CD150+CD48-); assay: Apoptosis and cell growth of mouse CML leukemia stem cells; type: cell-based; conditions: combined with NIL, compared with CpG-SCR+NIL
# Method: Mouse CML leukemia stem cells (LSC, Lin-Sca-1+c-kit+Fit3-CD150+CD48-) were sorted and treated with CpG-anti-miR-126 inhibitor or CpG-SCR (500 nM) for 48 hours, then furthered treated with miR126 inhibitor+NIL or SCR+NIL for 72 hours, then apoptosis and cell growth were measured.
# [5] = tested on: long term hematopoietic stem cells (LTHSC, Lin-Sca-1+c-kit+Fit3-CD150+CD48−) from normal and CML mouse; assay: Cell cycling of murine LTHSC by EDU/DAPi staining; type: cell-based; conditions: 500 nM, compared with the CpG-Scr
# Method: Normal (NL) and CML murine LTHSC (Lin-Sca-1+Kit+Fit3− CD150+CD48− cells) were sorted and then treated with 500 nm CpG-miR126 inhibitor or CpG-SCR for 72 hours, then cell cycling was analyzed by EDU/DAPi staining.
# [6] = 5 mg/kg every other day iv + NIL 50 mg/kg daily
substance,measurement,setting,value
5′ G*G*T GCA TCG ATG CAGG*G*G* G*G (SEQ ID NO: 1) xxxxx mCmGmC mAmUmU mAmUmU mAmCmU mCmAmC mGmGmU mAmCmG mA (SEQ ID NO: 17) 3′ [CpG-anti-miR126],CML white blood cells in the PB,[1]; [6],Reduced CML white blood cells
same,spleen weight,[1]; [6],Reduced spleen weight
same,CML LSK in the BM and spleen,[1]; with NIL,Reduced
same,CML LTHSC in the BM and spleen,[1]; with NIL,Reduced
same,CML cells in the BM and spleen,[1]; with NIL,Reduced
same,internalization (Cy3 uptake),"[2]; 200 nM and 500 nM, no transfection reagents",quickly and dose-dependently internalized
same,level of internalization compared with other oligonucleotides including NP-formulated anti-miR126 inhibitor,[2]; absence of any transfection reagents,exceeded that of all other oligonucleotides
same,cell cycling,[3],Increased cell cycling
same,apoptosis of LSC,[4],significantly increased apoptosis
same,cell growth of LSC,[4],significant reduction of cell growth
same,cell-cycle entry,[5],increased cell-cycle entry
